Experimental data reported in ChEMBL document CHEMBL1141468, “Photoactivated enediynes as targeted antitumoral agents: efficient routes to antibody and gold nanoparticle conjugates” (Bioorg Med Chem Lett, 2008).

Assay: Radiation-induced photodegradation in […] X174 Rf1 DNA assessed as conversion of type 2 DNA at 1 uM after 3 hrs

Work on `O=C(O)CCOCCOCCOCCOCCOCCOCCOCCOCCOCCOCCOCCOCCOCCC(=O)OCc1ccc(C#Cc2ccccc2C#Cc2ccccc2)cc1` yielded an Activity of 24%.
